{"source": "patent US20080280837A1", "about": "“Biologically Active Compounds with Anti-Angiogenic Properties” (priority 2004, published 2008)", "key": {"[1]": {"system": "PC-3 human prostate tumour xenograft", "experiment": "Nude mouse model of human PC-3 prostate tumours", "format": "in vivo, nude mice", "conditions": "PC-3 xenograft", "description": "(§1) Initial Maximum Tolerated Dose (MTD) studies were done in male nude mice to determine the appropriate intravenous dosing regimen for the PC-3 human prostate tumour model. A range of doses between 0 and 50 mg/Kg for 28 days (qdx28) were tested. Mice were randomized into groups with 5 animals per group including vehicle control. Animals were weighed twice weekly starting on day one and observed daily for adverse reactions or toxicity due to the agent. MTD studies determined the selection of 20 mg/kg and 35 mg/kg for intravenous dosing once per day for 28 days in the PC-3 human prostate tumour xenograft model.\nMale nude mice (nu/nu) between 5 and 6 weeks of age weighing approximately 25 g were implanted subcutaneously (s.c) by trocar with fragments of PC-3 human tumour carcinomas harvested from s.c growing tumours in host mice. PC-3, is a metastatic human prostate adenocarcinoma cell line originating from a person. When tumours reached approximately 36 mm^3 in size animals were pair matched into treatment and control groups with 10 mice in each group. […]\nAt the end of the treatment period the mice were weighed and sacrificed. Each tumour was excised and weighed and a mean actual tumour weight (mg) per group was calculated along with the mean actual volume ([…]). […] Mean tumour regression was determined using the formula [1−(mean actual tumour weightFINAL/mean tumour weightDAY 1)×100%]."}, "[2]": {"molecular_target": "T1, SSTR-4 (Homo sapiens, UniProt P31391)", "T1 construct": "expressed in transfected cells", "T1 sequence (P31391 whole entry)": "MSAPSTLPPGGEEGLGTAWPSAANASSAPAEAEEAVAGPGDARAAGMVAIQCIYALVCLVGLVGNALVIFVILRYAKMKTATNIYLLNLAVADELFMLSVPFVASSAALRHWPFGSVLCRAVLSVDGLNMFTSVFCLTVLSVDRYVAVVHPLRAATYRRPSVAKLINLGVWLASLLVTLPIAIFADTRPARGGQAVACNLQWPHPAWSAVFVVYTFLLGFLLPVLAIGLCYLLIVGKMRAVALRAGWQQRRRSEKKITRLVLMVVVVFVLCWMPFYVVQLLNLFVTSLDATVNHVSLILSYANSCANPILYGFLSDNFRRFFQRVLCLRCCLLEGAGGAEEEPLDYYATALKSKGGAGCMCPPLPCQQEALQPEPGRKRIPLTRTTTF", "experiment": "Radioligand binding screen against somatostatin subtype SSTR-4 (SST4 assay)", "conditions": "concentration required to displace 50% of the competitive radioligand; read-out: IC50 SSTR4", "description": "Receptor membrane preparations containing the desired cloned receptor (for example cloned human somatostatin receptor subtype 5, SSTR5) and radio-labeled ligand (for example 3-[^125I]iodotyrosyl^11 Somatostatin-14)) were diluted at the concentration required for testing and according to the specific parameters associated with the selected receptor-ligand combination, including receptor Bmax, ligand Kd and any other parameters necessary to optimize the experimental conditions. When tested for competition activity to the reference ligand, “compound 1” was mixed with membrane suspension and the radiolabeled reference ligand (with or without an excess of cold ligand to the receptor for determination of non-specific binding) and incubated at the temperature required by internal standard operating procedures. Following incubation, the binding reaction was stopped by the addition of ice-cold washing buffer and filtered on appropriate filters, which are then counted. Data analysis and curve-fitting was performed with XLfit (IDBS).\n10 mM solutions of test compounds in 100% DMSO were prepared. ˜160 μl was used for each dilution (20 μl/well in triplicate).\nA 1.25 mM assay stock was prepared by making a 1:8 dilution of the 10 mM solution. (To 30 μL of the 10 mM solution was added 210 μL milli-Q H2O. A 1:5 dilution series in milli-Q H2O was then prepared.\nAssays were performed in triplicate at each concentration within the 1:5 dilution series: 250 μM, 50 μM, 10 μM, […], 0.4 μM, 0.08 μM, 0.016 μM, 0.0032 μM, etc. (for SST4 assay) and 125 μM, 10 μM, 2 μM, 1 μM, 0.5 μM, etc (for SST5 assay).\nIn primary screening experiments compounds were tested in duplicate for a particular concentration."}, "[3]": {"system": "MV522 human NSCLC tumour xenograft", "experiment": "Nude mouse model of human MV522 non-small cell lung cancer tumours", "format": "in vivo, nude mice", "description": "as §1, with “MV522” for “PC-3”, “NSCLC” for “prostate”\nMale nude mice (nu/nu) between 5 and 6 weeks of age weighing approximately 20 g were implanted subcutaneously (s.c) by trocar with fragments of MV522 human tumour carcinomas harvested from s.c growing tumours in host mice. MV-522 is a metastatic human lung adenocarcinoma line. When tumours reached approximately 72 mg in size animals were pair matched into treatment and control groups with 10 mice in each group. Each mouse was tagged and followed individually throughout the experiment.\n“Compound 1” was administered i.v. in a saline vehicle from day one. Vehicle control group animals were administered saline i.v. There were nine treatment groups including the vehicle control group. […]\nAt the end of the treatment period the mice were weighed and sacrificed. Each tumour was excised and weighed and a mean actual tumour weight (mg) per group was calculated along with the mean actual volume (mm^3). […] Mean tumour regression was determined using the formula [1−(mean actual tumour weightFINAL/mean tumour weightDAY 1)×100%]."}, "[4]": {"system": "HUVEC tube formation", "experiment": "Matrigel tube formation assay", "format": "cell-based, human", "conditions": "Homo sapiens, 22 h", "description": "HUVEC (Clonetics) were plated in 96 well plates in EGM-2 media (Clonetics) at 2.5 to 3×10^4 cells per well. Cells of less than 6 passages were used in all studies. Wells were precoated with 50 μL growth factor containing Matrigel (Becton Dickinson). HUVEC were allowed to form tubes by incubation at 37° C. in 5% CO2 for 22 hrs. In test wells compound was added in the desired concentration. Photographic images of the wells ×4 magnification were used to determine size of the tubes, length of tubes and number of junctions using image analysis software."}}}
{"smiles": "COC[C@H]1O[C@H](OCCc2ccccc2)[C@H](NC(=O)CCCN)[C@@H](OCc2ccc3ccccc3c2)[C@@H]1O", "note": "[Compound 1]", "values": [{"measurement": "Tumour growth inhibition (TGI)", "setting": "[1]; 20 mg/kg i.v. daily", "result": 34, "unit": "%"}, {"measurement": "Tumour growth inhibition (TGI)", "setting": "[1]; 35 mg/kg i.v. daily", "result": 34, "unit": "%"}, {"measurement": "IC50", "setting": "[2]", "result": "> 12.5", "unit": "µM"}, {"measurement": "Tumour growth inhibition (TGI)", "setting": "[3]; group nine: 35 mg/kg compound 1 i.v. qdx28 and paclitaxel 16 mg/kg i.p. qdx5", "result": 75.1, "unit": "%"}, {"measurement": "Tumour growth inhibition (TGI)", "setting": "[3]; group seven: 20 mg/kg compound 1 i.v. qdx28 and paclitaxel 16 mg/kg i.p. qdx5", "result": 56.9, "unit": "%"}, {"measurement": "EC50", "setting": "[4]", "result": 250, "unit": "µM"}]}
